A word on the Km: it is the substrate concentration at which the rate is half of its maximum. The term IC50 denotes the midpoint of a concentration-inhibition curve. Usually MBC stands for the smallest concentration meeting the test's criterion for killing. One may read the EC50 as the concentration needed to bring the measured effect to its halfway point. Low values mean an effect from little substance, high ones a need for much substance.

In brackets after ≈: the same amount, converted by molar mass.

Data set [1] can be described thus: Chemiluminescence assay (luminol, antioxidant). The settings on record: concentration reducing 50% of radicals. As to the method:
Chemiluminescence Assay: The assay of the antioxidant properties of the tested dyes was based on the measurement of luminol chemiluminescence induced by hydroxyl radicals in the Fe^2+-EDTA-H2O2-luminol system. […] Afterwards, the samples were placed in a Berthold–Lumat LB 9506 luminometer, and the solutions of reagents were added automatically as follows: 1.5 mM Fe^2+-EDTA (100 µL) and 4.4 mM H2O2 (100 µL). The chemiluminescence was measured with (I1) or without (I0) the addition of the tested dye. The inhibitory rate (IR) was calculated according to the following equation: IR(%)=(1−I1/Io)×100 All analyses allowing determination of antioxidative properties were performed in triplicate in room temperature 22 ± 3 °C. […] Trolox was used as positive controls for each technique.

The nature of data set [2]: ABTS assay (antioxidant). To be noted: concentration reducing 50% of radicals. As to the method: ABTS assay: In this method, the ability of the tested dye to reduce the dark green ABTS radical cation (ABTS^●+) was evaluated. First, 5 mM phosphate buffer pH 7.4 (PBS) and 7.4 mM ABTS solution were prepared. During the ABTS solution preparation, ABTS was dissolved and ABTS^●+ was generated by reacting with K2S2O8 (2.4 mM final concentration) in a dark bottle at room temperature for 16–18 h. Next, the ABTS^●+ solution was diluted with PBS to an absorbance of 0.7 at 734 nm measured using a Tecan plate reader (Spark, Tecan, Austria). ABTS^●+ (990 µL) was added to the tested dye sample (10 µL) in a 96-well plate and incubated for 10 min at room temperature. The tested dye concentration was in the range from 0.01 to 1 mg/mL. Simultaneously, the negative control (XC) and the control of dye colour correction (XD) were incubated. The change in the absorbance of ABTS^●+ with the dye sample (XP) and controls were measured in the plate reader at 734 nm and the ABTS^●+ reduction rate (AR) was calculated according to the following equation: AR=(XC−(XP−XD)/XC)×100% All analyses allowing determination of antioxidative properties were performed in triplicate in room temperature 22 ± 3 °C. […] Trolox was used as positive controls for each technique.

Data set [3] concerns laccase (LAC). To be noted: read-out: KM (Michaelis–Menten constant); 0.1 M sodium-tartrate buffer pH 4, 440 nm, Lineweaver–Burk. From the text: The reaction mixture was scanned to determine the λ max cha-racterizing the main reaction product od dye using a Cary 50 Bio spectrophotometer (Varian, Palo Alto, CA, USA).
The test system of data set [4] is human normal colon epithelial cell line CCD-841 CoTr. As to the kind of experiment: Cytotoxicity, LDH assay, colon epithelial cells. The class given is cell-based. To be noted: after 24 h. As to the method:
(§1) Cell cultures: The research was conducted on human normal colon epithelial cell line CCD-841 CoTr (ACCT, No. CRL-1807) and human normal colon fibroblast cell line CCD-18Co (ATCC, No. CRL-1459) obtained from the American Type Culture Collection (ATCC, Manassas, VA, USA). The cells were grown in a mixture of DMEM and RPMI 1640 media (1:1) containing 10% (v/v) of foetal bovine serum (FBS) and antibiotics (100 U/mL penicillin and 100 μg/mL streptomycin) and kept in standard conditions (at 37 °C in humidified atmosphere of 5% CO2). For the MTT and LDH tests, cells at the density of 1 × 10^5 cells /mL were seeded on 96-well plates. […] Lactate dehydrogenase(LDH) assay: This assay measures lactate dehydrogenase (LDH) released to the medium by cells with a damaged plasma membrane. […] Absorbance was recorded on a microplate reader (Spark, Tecan, Austria) at 490 nm with a reference wavelength at 690 nm. Results obtained from three independent experiments were reported as cell viability (%) calculated according to the formula: cell viability (%) = (100 − Abssample × Abscontrol^−1) × 100% All analyses were performed in triplicate and presented as mean ± SD. The IC50 value was calculated by nonlinear regression using a curve fitting program in GraphPad Prism 5.0.

Data set [5] can be described thus: DPPH assay (antioxidant). To be noted: concentration reducing 50% of radicals. On the procedure: DPPH assay: […] Then, 100 µL of the tested dye was added to a 96-well plate containing 100 µL of a freshly prepared DPPH solution in 95% ethanol. […] The mixture was incubated at room temperature for 20 min. The change in absorbance caused by the tested dyes (XP) and ultrapure water as a negative control (XC) was monitored at 515 nm using a multiplate reader (Spark, Tecan, Austria). Simultaneously, the absorbance of the dye at a wavelength of 515 nm was investigated as a control of the dye–colour correction (XD). The radical reduction rate (DR) was calculated according to the following equation: DR(%)=(XC−(XP−XD)/XC)×100% All analyses allowing determination of antioxidative properties were performed in triplicate in room temperature 22 ± 3 °C. […] Trolox was used as positive controls for each technique.
A general note: Loss of DPPH colour is used to gauge radical scavenging.

Data set [6] is described as follows: Antioxidative potential over the three methods (ABTS, DPPH, luminol). The settings on record: range depending on the method used. On the procedure:
Chemiluminescence Assay: The assay of the antioxidant properties of the tested dyes was based on the measurement of luminol chemiluminescence induced by hydroxyl radicals in the Fe^2+-EDTA-H2O2-luminol system. […] Afterwards, the samples were placed in a Berthold–Lumat LB 9506 luminometer, and the solutions of reagents were added automatically as follows: 1.5 mM Fe^2+-EDTA (100 µL) and 4.4 mM H2O2 (100 µL). The chemiluminescence was measured with (I1) or without (I0) the addition of the tested dye. The inhibitory rate (IR) was calculated according to the following equation: IR(%)=(1−I1/Io)×100 DPPH assay: […] […] The change in absorbance caused by the tested dyes (XP) and ultrapure water as a negative control (XC) was monitored at 515 nm using a multiplate reader (Spark, Tecan, Austria). Simultaneously, the absorbance of the dye at a wavelength of 515 nm was investigated as a control of the dye–colour correction (XD). The radical reduction rate (DR) was calculated according to the following equation: DR(%)=(XC−(XP−XD)/XC)×100% ABTS assay: In this method, the ability of the tested dye to reduce the dark green ABTS radical cation (ABTS^●+) was evaluated. […] Next, the ABTS^●+ solution was diluted with PBS to an absorbance of 0.7 at 734 nm measured using a Tecan plate reader (Spark, Tecan, Austria). […]

For data set [7], the system named is human normal colon fibroblast cell line CCD-18Co. The data set can be described thus: Cytotoxicity, LDH assay, fibroblasts. The class given is cell-based. To be noted: after 24 h. As to the method:
as §1

The test system of data set [8] is S. epidermidis ATCC 14990. The data set can be described thus: MIC and MBC determination (CLSI protocol), S. epidermidis. The settings on record: Staphylococcus epidermidis, ATCC14990, read-out: MBC S. epidermidis. The class given is cell-based. As to the method:
(§2) The stock solutions (10 mg/mL) of the tested substances were prepared in distilled water and afterwards diluted to the appropriate concentration in Mueller–Hinton Bullion. In each well of a 96-well plate, 300 µL of the mixture was inoculated with 10 µL of the bacterial culture (final density~10^2 cfu/mL). […] Then, 10 µL of the suspension from each well was transferred to a fresh sterile medium and incubated for another 24 h at 37 °C. The lack of turbidity indicated bactericidal activity of the investigated substances and the MBC value was thus determined.

Data set [9] can be described thus: Cyclic voltammetry of the ANS substrate. It is filed as physicochemical. To be noted: 1 mM substrate, 0.1 M sodium tartrate buffer pH 4.5. On the procedure: All measurements were performed for the 1 mM substrate dissolved in 0.1 M sodium tartrate buffer at pH 4.5 in triplicate at room temperature 22 ± 3 °C. The potential was scanned with the scan speed of 50 mV/s from −400 to 1500 mV vs. Ag/AgCl/KClsat after holding the electrochemical system at the initial potential for 10 s.

Data set [10] in a line: Cytotoxicity regardless of assay method and cells used. The class given is cell-based. The settings on record: human; regardless of the toxicity assay method and the cells used; read-out: IC50 (cytotoxicity), lowest value.
Procedure: For the MTT and LDH tests, cells at the density of 1 × 10^5 cells /mL were seeded on 96-well plates. After 24 h incubation, the medium was replaced with a fresh one with 2% of FBS supplemented with ANS or not (control).
MTT assay: This method is used to determine cell viability and proliferation. It is based on the measurement of the oxidoreductive activity of mitochondria with the yellow dye 3-(4,5-dimethylthiazo-2-yl)-2,5-diphenyl-tetrazolium bromide (MTT) which is metabolised in living cells to purple formazan crystals. After 24 h incubation with the examined compounds, 25 µL of MTT (5 mg/mL) was introduced onto each well and incubated for 3 h. Then, to stop the reaction and dissolve the formazan crystals, 100 µL of a 10 % SDS solution in 0.01 N HCL was added. The following day, the absorbance was determined spectrophotometrically at 570 nm using a microplate reader (Spark, Tecan, Austria).
Results obtained from three independent experiments were reported as cell viability (%) calculated according to the formula: cell viability (%) = (100 − Abssample × Abscontrol^−1) × 100% […]
For data set [11], the system named is human normal colon epithelial cell line CCD-841 CoTr. The data set can be described thus: Cytotoxicity, MTT assay, colon epithelial cells. It is filed as cell-based. To be noted: CCD-841, 24 h, read-out: IC50 Colon Epithelial Cells MTT. As to the method:
(§3) Cell cultures: The research was conducted on human normal colon epithelial cell line CCD-841 CoTr (ACCT, No. CRL-1807) and human normal colon fibroblast cell line CCD-18Co (ATCC, No. CRL-1459) obtained from the American Type Culture Collection (ATCC, Manassas, VA, USA). The cells were grown in a mixture of DMEM and RPMI 1640 media (1:1) containing 10% (v/v) of foetal bovine serum (FBS) and antibiotics (100 U/mL penicillin and 100 μg/mL streptomycin) and kept in standard conditions (at 37 °C in humidified atmosphere of 5% CO2). For the MTT and LDH tests, cells at the density of 1 × 10^5 cells /mL were seeded on 96-well plates. […] MTT assay: This method is used to determine cell viability and proliferation. […] Then, to stop the reaction and dissolve the formazan crystals, 100 µL of a 10 % SDS solution in 0.01 N HCL was added. The following day, the absorbance was determined spectrophotometrically at 570 nm using a microplate reader (Spark, Tecan, Austria). Results obtained from three independent experiments were reported as cell viability (%) calculated according to the formula: cell viability (%) = (100 − Abssample × Abscontrol^−1) × 100% All analyses were performed in triplicate and presented as mean ± SD. The IC50 value was calculated by nonlinear regression using a curve fitting program in GraphPad Prism 5.0.
For orientation: Formazan colour is commonly taken as a measure of viable cells.

Data set [12] concerns Vibrio fisheri. The data set can be described thus: Environmental toxicity, 81.9% Basic Test Microtox protocol. The class given is cell-based. The settings on record: 5 min. From the text:
Toxicity was expressed as half maximal effective concentration (EC50) according to the 81.9% Basic Test Microtox protocol. All reagents and Vibrio […] bacterium were purchased from […]), the Polish representative of Modern Water Company (New Castle, DE, USA).

Data set [13] concerns human normal colon fibroblast cell line CCD-18Co. The data set can be described thus: Cytotoxicity, MTT assay, fibroblasts. It is filed as cell-based. The settings on record: 24 h, read-out: IC50 Fibroblasts MTT. As to the method: as §3
The test system of data set [14] is S. aureus ATCC 25923. The data set can be described thus: MIC and MBC determination (CLSI protocol), S. aureus. It is filed as cell-based. To be noted: Staphylococcus aureus, ATCC25923, read-out: MBC S. aureus. As to the method:
as §2

As for `O=S(=O)(O)c1cccc2cccc(Nc3ccccc3)c12` [ANS, 8-anilino-1-naphthalenesulfonic acid], in data set [1], the “IC50 Luminol” value was 6 µg/mL (≈ 20 µM). Moreover, the “IC50 ABTS” value in data set [2] came to 0.027 µg/mL (≈ 0.0902 µM). In addition, in data set [3], the Km is 435 µM. Besides, the half-inhibitory concentration (IC50) is 382 µg/mL (≈ 1280 µM) in [4], 247 µg/mL (≈ 825 µM) in [7], 322 µg/mL (≈ 1080 µM) in data set [11] and 295 µg/mL (≈ 985 µM) in data set [13]. In [5], the “IC50 DPPH” value is on record as 153 µg/mL (≈ 511 µM). In addition, the “IC50 values (antioxidative potential)” value in data set [6] is given as 0.027 to 153 µg/mL. The minimum bactericidal concentration (MBC) in data set [8] and in [14] was 400 µg/mL (≈ 1340 µM) in each case. The “Eo vs. NHE (oxidation potential)” value in [9] was determined as 0.768 V. The IC50 at 24 h in data set [10] was at least 247 µg/mL. The same molecule yielded a half-maximal effective concentration (EC50) in data set [12] of 19 µg/mL (≈ 63.5 µM).

(Values after PMC8780785 (Molecules, 2022).)
